# Measured values reported in the supplement of paper PMC11821682.
# How the values were obtained:
# Danio rerio embryo [1] = experiment: LEL embryonic photomotor response 24 hpf
# Danio rerio embryo [2] = experiment: BMC10 mortality 24-120 hpf; higher = less toxic
# Experimental: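 ZBEscreen: dechorionated Tropical 5D zebrafish embryos were exposed from 4 hpf in 96-well plates (1% DMSO, 28 °C). All compounds were first tested at 100 µM; hits were retested at 0.005-100 µM. Morphology and mortality were scored at 120 hpf and fitted as BMC10 (3-parameter log-logistic, extra risk). The embryonic photomotor response at 24 hpf and the larval photomotor response at 120 hpf are given as lowest effect levels (K-S test, p<0.01). NA = not significant up to 100 µM; NT = not tested.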
# Danio rerio embryo [3] = experiment: LEL larval photomotor response dark phase 120 hpf
# Danio rerio embryo [4] = experiment: BMC10 any morphological effect or mortality at 120 hpf; higher = less toxic
# HL-60 = experiment: Cell Health Index (toxicity pseudo-probability over dose series) (index 0-1); higher = more cytotoxic / cell stress;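 further: HL-60 cells exposed 4 h at 37 °C to ten threefold dilutions spanning 5 nM to 100 µM, multiparametric flow cytometry features scored by machine-learning classification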
Compound,LEL embryonic photomotor response 24 hpf (Danio rerio embryo [1]) [µM],BMC10 mortality 24-120 hpf (Danio rerio embryo [2]) [µM],LEL larval photomotor response dark phase 120 hpf (Danio rerio embryo [3]) [µM],BMC10 any morphological effect or mortality (Danio rerio embryo [4]) [µM],Cell Health Index (HL-60)
CCC[C@H](NC(=O)/C(C#N)=C/c1cccc(Br)n1)c1ccccc1 [Degrasyn],1.23,1.92,> 100,0.411,0.909
CN1Cc2c(ccc3c2OCO3)[C@@H]2[C@H]1c1cc3c(cc1C[C@@H]2O)OCO3 [Chelidonine],> 100,0.079,> 100,0.064,0.277
O=c1cc(-c2cccc3c2Sc2ccccc2S3)oc(N2CCOCC2)c1,11.1,9.46,> 100,5.74,0.663
CN1CCN(CCCN2c3ccccc3Sc3ccc(C(F)(F)F)cc32)CC1.Cl.Cl [Trifluoperazine],11.1,4.13,> 100,3.55,0.898
COc1c(C)c2c(c(O)c1C/C=C(\C)CCC(=O)O)C(=O)OC2 [Mycophenolic acid],11.1,1.93,> 100,1.23,0.204
COc1oc(=O)c2cc(N)ccc2c1Cl [JCP251],100,71.8,11.1,42.2,0.306
CC[C@@]1([C@@H]2O[C@@H]([C@H]3O[C@@](O)(CO)[C@H](C)C[C@@H]3C)C[C@@H]2C)CC[C@H]([C@]2(C)CC[C@]3(C[C@H](O)[C@@H](C)[C@@H]([C@@H](C)[C@@H](OC)[C@H](C)C(=O)[O-])O3)O2)O1.[Na+] [Monensin],> 100,28.5,0.005,27.5,0.493
O=C1C=CC2=C(C(OC/C=C(C)/C)=C(OC=C3)C3=C2)O1 [Imperatorin],3.7,10.8,> 100,2.05,0.307
CCc1nc(N)nc(N)c1-c1ccc(Cl)cc1 [Pyrimethamine],100,30,> 100,3.56,0.324
NC(=O)c1cccc(-c2cc(Nc3ccc(OC(F)(F)F)cc3)ncn2)c1 [GNF-2],11.1,4.78,> 100,3.7,0.869
Cc1cc(CCCOc2c(C)cc(-c3noc(C(F)(F)F)n3)cc2C)on1 [Pleconaril],0.41,6.8,> 100,1.15,0.48
C/C1=C/CC/C(C)=C/CC(C)(C)/C=C/C1=O [Zerumbone],11.1,9.91,> 100,2.66,0.238
COc1cccc2c1C(=O)c1c(O)c3c(c(O)c1C2=O)C[C@@](O)(C(=O)CO)C[C@@H]3O[C@H]1C[C@H](N)[C@H](O)[C@H](C)O1.Cl [Doxorubicin],11.1,7.71,> 100,3.18,0.852
COc1ccc(CC(C)C(C)Cc2ccc(OC)c(OC)c2)cc1OC (stereo not given) [Terameprocol],3.7,24,> 100,3.12,0.506
O=C(N/N=C/c1ccc(O)c(O)c1)c1cc2ccccc2cc1O [Dynasore],33.3,7.92,> 100,10.2,0.48
O=c1c(O)c(-c2ccccc2)oc2cc(O)cc(O)c12 [Galangin],100,32.8,> 100,12.3,0.411
C=CC(=O)N1CC/C(=C\c2ccc(F)c([N+](=O)[O-])c2)C(=O)/C(=C/c2ccc(F)c([N+](=O)[O-])c2)C1 [VLX1570],> 100,1.38,> 100,1.26,0.884
CC(=O)O[C@]1(C(C)=O)CC[C@H]2[C@@H]3C=C(C)C4=CC(=O)CC[C@]4(C)[C@H]3CC[C@@]21C [Megestryl acetate],11.1,9.53,> 100,4.08,0.449
Cl.Clc1ccc(Cn2c(CN3CCCC3)nc3ccccc32)cc1 [Clemizole],3.7,10.1,> 100,4.04,0.453
COc1ccc2c(c1)CC[C@@H]1[C@@H]2CC[C@]2(C)[C@@H](NCCCCCCN3C(=O)C=CC3=O)CC[C@@H]12,11.1,0.101,> 100,0.134,0.348
C[C@H]1[C@H](C)CC[C@]2(C(=O)O)CC[C@]3(C)C(=CC[C@@H]4[C@@]5(C)CC[C@H](O)C(C)(C)[C@@H]5CC[C@]43C)[C@H]12 [Ursolic acid],> 100,3.95,> 100,0.748,0.434
CC1(C)CC[C@]2(C(=O)O)CC[C@]3(C)C(=CC[C@@H]4[C@@]5(C)CC[C@H](O)C(C)(C)[C@@H]5CC[C@]43C)[C@@H]2C1 [Oleanolic acid],> 100,8.42,> 100,3.43,0.354
NC(=O)c1ccc(I)c([N+](=O)[O-])c1 [Iniparib],33.3,33.9,> 100,10.2,0.283
CC1(C)[C@@H](O)CC[C@@]2(C)[C@@]1([H])[C@@H](O)C[C@]3(C)[C@]2([H])C[C@@H](O)[C@@]4([H])[C@@]3(C)CC[C@]4([H])[C@@](C)(O)CC/C=C(C)/C [20(S)-Protopanaxatriol],33.3,25.7,> 100,16.2,0.803
Cc1ccc2c(c1)c1c3n2CCNC3CCC1 (stereo not given) [Pirlindole],33.3,12,> 100,5.42,0.298
CC1(C)C=Cc2c(ccc3c2OC[C@@H](c2ccc(O)cc2O)C3)O1 [Glabridin],11.1,9.73,> 100,3.57,0.58
CC[C@H]1CN2CCc3cc(OC)c(OC)cc3[C@@H]2C[C@@H]1C[C@H]1NCCc2cc(O)c(OC)cc21 [Cephaeline],3.7,0.159,0.41,0.069,0.562

Compound,LEL embryonic photomotor response 24 hpf (Danio rerio embryo [1]) [µM],BMC10 mortality 24-120 hpf (Danio rerio embryo [2]) [µM],LEL larval photomotor response dark phase 120 hpf (Danio rerio embryo [3]) [µM],BMC10 any morphological effect or mortality (Danio rerio embryo [4]) [µM],Cell Health Index (HL-60)
CC(=O)Oc1ccccc1C(=O)Nc1ncc([N+](=O)[O-])s1 [Nitazoxanide],> 100,45.9,> 100,44.9,0.723
COc1ccc(C(=O)O[C@H]2[C@H](O[C@@H]3[C@@H](OC(C)=O)[C@H](O[C@H]4C[C@H]5[C@@H]6CC=C7C[C@@H](O)CC[C@]7(C)[C@H]6CC[C@]5(C)[C@@]4(O)[C@H](C)C(=O)CCC(C)C)OC[C@@H]3O)OC[C@@H](O)[C@@H]2O)cc1 [OSW-1],> 100,0.03,0.14,0.03,0.822
Cc1c(-c2ccc(-c3ccccc3F)cc2)nc2ccc(F)cc2c1C(=O)O [Brequinar],11.1,1.41,> 100,0.331,0.332
O=C(Nc1ncc([N+](=O)[O-])s1)c1ccccc1O [Tizoxanide],> 100,44.2,> 100,29.5,0.736
OC1=C2C(C(C=C([C@@](O)([H])C/C=C(C)\C)C2=O)=O)=C(O)C=C1 [Shikonin],3.7,1.73,> 100,1.08,0.884
C[C@H]1CCC/C=C/[C@@H]2C[C@H](O)C[C@H]2[C@H](O)/C=C/C(=O)O1 [Brefeldin A],11.1,3.95,> 100,1.09,0.226
C/C=C(/C)C(=O)OC(C)(C)[C@@H]1Cc2c(ccc3ccc(=O)oc23)O1 [Columbianadin],3.7,4.89,> 100,4.14,0.399
CCN(CC)CCOc1ccc2c(c1)C(=O)c1cc(OCCN(CC)CC)ccc1-2.Cl.Cl [Tilorone],> 100,9.79,> 100,3.55,0.506
COc1cc(/C=C\C(=O)CC(=O)/C=C\c2ccc(O)c(OC)c2)ccc1O [Curcumin],> 100,40,> 100,30.8,0.401
O=C1C=CC2=CC=C(OC)C(C/C=C(C)\C)=C2O1 [Osthole],3.7,8.94,> 100,3.1,0.355
c1ccc(CNc2nc(NCc3ccccc3)c3ccccc3n2)cc1 [DBeQ],1.23,1.31,> 100,1.15,0.929
CC1(C)CC[C@]2(C(=O)O)CC[C@]3(C)C(=CC[C@@H]4[C@@]5(C)C[C@@H](O)[C@H](O)C(C)(C)C5CC[C@]43C)[C@H]2C1 (stereo not given in full) [Maslinic acid],> 100,13.3,> 100,13.3,0.494
CC(C)(C)C(O)C(Oc1ccc(-c2ccccc2)cc1)n1cncn1 (stereo not given) [Bitertanol],33.3,30.3,11.1,16.4,0.408
CC(=O)c1c(O)c(C)c(O)c2c1OC1=CC(=O)C(C(C)=O)C(=O)C12C (stereo not given) [Usnic acid],33.3,1.77,> 100,1.01,0.406
CC(=O)c1cc([N+](=O)[O-])c(Sc2cccc(Cl)c2Cl)s1,> 100,27.7,> 100,0.246,0.789
CN1CCN(C(c2ccc(Cl)cc2)c2ccc(Cl)cc2)CC1 [1-[bis(4-chlorophenyl)methyl]-4-methyl-piperazine],11.1,16.1,> 100,12.6,0.934
CN(C)CCCNC(=O)c1ccc(-c2cc(O)c3ncccc3c2)cc1 [ML-324],11.1,15.9,> 100,15.9,0.537
CCCCCCCC/C=C\CCCCCCCCCCCCCC(=O)O [Nervonic acid],> 100,31,> 100,30.9,0.175
COc1ccc(-c2oc3cc(OC)c(OC)c(O)c3c(=O)c2OC)cc1O [Casticin],3.7,1.28,> 100,1.26,0.355
Cc1cc(Nc2nc(N[C@@H](C)c3ccc(F)cc3)c(C#N)cc2F)n[nH]1 [AZ-960],3.7,1.95,> 100,1.27,0.78
Cc1cnc(-c2ccccc2C(C)C)nc1NCc1ccc(-n2ccnn2)cc1 [ML-323],11.1,10.5,> 100,9.11,0.577
Cl.Cl.OCCOCCN1CCN(Cc2cccc(Oc3ccccc3)c2)CC1,33.3,43.1,33.3,36.5,0.385
C=CCc1ccc(O)c(-c2ccc(O)c(CC=C)c2)c1 [Honokiol],3.7,9.2,> 100,5.7,0.542
O=C1Nc2ccc(Cl)cc2[C@@](C#CC2CC2)(C(F)(F)F)O1 [Efavirenz],3.7,12,> 100,1.3,0.874
COc1ccc2c(O[C@@H]3C[C@H]4C(=O)N[C@]5(C(=O)NS(=O)(=O)C6CC6)C[C@H]5/C=C\CCCCN(C)C(=O)[C@@H]4C3)cc(-c3nc(C(C)C)cs3)nc2c1C.[Na] [Simeprevir],> 100,5.01,> 100,3.6,0.903
CC(C)(C)Oc1cccc2nc(N)nc(N)c12 [HZ-1157],33.3,16.1,> 100,> 100,0.463
